Assay results from US4048202A (priority 1975, dated 1977).
In brackets after ≈: the same amount, converted by molar mass. Read-outs that look alike come from different tables or passages of the source.

Tests used:
Test in all cases: microbe, parasite or virus in culture
C.botulinum (ATCC 19397) = format: cell-based; conditions: Clostridium botulinum
[1] = tested on: C. paraputrificum (ATCC 1620-23); format: cell-based; conditions: Clostridium paraputrificum, read-out: Minimum Inhibitory Concentrations
B.subtilis = format: cell-based; conditions: Bacillus subtilis, read-out: Minimum Inhibitory Concentrations
[2] = tested on: C.perfingens (ATCC 13124); format: cell-based, Clostridium perfingens; conditions: Clostridium, read-out: Minimum Inhibitory Concentrations
[3] = tested on: C.perfingens (ATCC 1620-19); format: cell-based, Clostridium perfingens; conditions: Clostridium, read-out: Minimum Inhibitory Concentrations
[4] = ATCC19397, pH 5, read-out: Minimum Inhibitory Concentrations
[5] = ATCC19397, pH 7, read-out: Minimum Inhibitory Concentrations

## CCCCCCCCCC(=O)OCC(O)C(=O)O (stereo not shown) [R=9, 3-O-decanoylglyceric acid]
C.botulinum (ATCC 19397); [4]
  MIC: 10 µg/mL (≈ 38.4 µM)
C.botulinum (ATCC 19397); [5]
  MIC: 10 µg/mL (≈ 38.4 µM)
[1]; ATCC1620, pH 5
  MIC: 10 µg/mL (≈ 38.4 µM)
[1]; ATCC1620, pH 7
  MIC: 100 µg/mL (≈ 384 µM)
B.subtilis; pH 5
  MIC: 10 µg/mL (≈ 38.4 µM)
B.subtilis; pH 7
  MIC: 1000 µg/mL (≈ 3840 µM)
[2]; ATCC13124, pH 5
  MIC: 10 µg/mL (≈ 38.4 µM)
[2]; ATCC13124, pH 7
  MIC: 10 µg/mL (≈ 38.4 µM)
[3]; ATCC1620, pH 5
  MIC: 10 µg/mL (≈ 38.4 µM)
[3]; ATCC1620, pH 7
  MIC: 100 µg/mL (≈ 384 µM)

## CCCCCC(=O)OCC(O)C(=O)O (stereo not shown) [R=5, 3-O-hexanoylglyceric acid]
C.botulinum (ATCC 19397); [4]
  MIC: 10 µg/mL (≈ 49 µM)
C.botulinum (ATCC 19397); [5]
  MIC: 100 µg/mL (≈ 490 µM)
[1]; ATCC1620, pH 5
  MIC: 10 µg/mL (≈ 49 µM)
[1]; ATCC1620, pH 7
  MIC: 1000 µg/mL (≈ 4900 µM)
B.subtilis; pH 5
  MIC: 10 µg/mL (≈ 49 µM)
B.subtilis; pH 7
  MIC: 10000 µg/mL (≈ 49000 µM)
[2]; ATCC13124, pH 5
  MIC: 100 µg/mL (≈ 490 µM)
[2]; ATCC13124, pH 7
  MIC: 1000 µg/mL (≈ 4900 µM)
[3]; ATCC1620, pH 5
  MIC: 10 µg/mL (≈ 49 µM)
[3]; ATCC1620, pH 7
  MIC: 1000 µg/mL (≈ 4900 µM)

## CCCCCCCCCCCCC(=O)OCC(O)C(=O)O (stereo not shown) [R=12, 3-O-tridecanoylglyceric acid]
C.botulinum (ATCC 19397); [4]
  MIC: 10 µg/mL (≈ 33.1 µM)
C.botulinum (ATCC 19397); [5]
  MIC: 100 µg/mL (≈ 331 µM)
[1]; ATCC1620, pH 5
  MIC: 10 µg/mL (≈ 33.1 µM)
[1]; ATCC1620, pH 7
  MIC: 100 µg/mL (≈ 331 µM)
B.subtilis; pH 5
  MIC: 10 µg/mL (≈ 33.1 µM)
B.subtilis; pH 7
  MIC: 1000 µg/mL (≈ 3310 µM)
[2]; ATCC13124, pH 5
  MIC: 10 µg/mL (≈ 33.1 µM)
[2]; ATCC13124, pH 7
  MIC: 100 µg/mL (≈ 331 µM)
[3]; ATCC1620, pH 5
  MIC: 10 µg/mL (≈ 33.1 µM)
[3]; ATCC1620, pH 7
  MIC: 10 µg/mL (≈ 33.1 µM)

## CCCCCCCCCCCCCCCC(=O)OCC(O)C(=O)O (stereo not shown) [R=15, 3-O-hexadecanoylglyceric acid]
C.botulinum (ATCC 19397); [4]
  MIC: 100 µg/mL (≈ 290 µM)
C.botulinum (ATCC 19397); [5]
  MIC: 1000 µg/mL (≈ 2900 µM)
[1]; ATCC1620, pH 5
  MIC: 10 µg/mL (≈ 29 µM)
[1]; ATCC1620, pH 7
  MIC: 1000 µg/mL (≈ 2900 µM)
B.subtilis; pH 5
  MIC: > 10000 µg/mL
B.subtilis; pH 7
  MIC: 10000 µg/mL (≈ 29000 µM)
[2]; ATCC13124, pH 5
  MIC: 10 µg/mL (≈ 29 µM)
[2]; ATCC13124, pH 7
  MIC: 1000 µg/mL (≈ 2900 µM)
[3]; ATCC1620, pH 5
  MIC: 100 µg/mL (≈ 290 µM)
[3]; ATCC1620, pH 7
  MIC: 100 µg/mL (≈ 290 µM)
